{
  "source": "patent US10517926B2",
  "about": "“Oligopeptide having proinflammatory cytokine secretion-inhibiting activity” (Osaka University, priority 2015, dated 2019)",
  "key": {"[1]": {"test_system": "RAW264.7 cells", "assay": "Proinflammatory cytokine secretion inhibition, LPS-stimulated macrophage cells (ELISA)", "type": "cell-based, mouse", "conditions": "MHP1 30, 50 or 100 μg/ml, LPS 2 ng/ml, 24 hours", "protocol": "RAW264.7 cells (mouse-derived macrophage cell line) were cultured in a DMEM medium (+4% FBS) containing MHP1 (final concentration: 30, 50, or 100 μg/ml) and LPS (final concentration: 2 ng/ml) for 24 hours by a standard method. After culture, the concentrations of IL-6 and TNFα in the medium were measured by the ELISA method. The results are shown in FIG. 3 (IL-6) and FIG. 4 (TNFα)."}, "[2]": {"test_system": "RAW264.7 cells", "assay": "Osteoclast-related mRNA expression (NFATc1, ACP5) by real-time RT-PCR", "type": "cell-based, mouse", "conditions": "MHP1 100 μg/ml, 3 days, FIG. 12A, 12B", "protocol": "It has recently been reported that the administration of RANKL protein to mice induces the activation of osteoclasts. Accordingly, the influence of the RANKL peptide on osteoclasts was examined. The specific examination procedures were as follows. MHP1 (final concentration: 100 μg/ml) or RANKL protein (final concentration: 10 ng/ml) was added to a medium (DMEM medium (+4% FBS)) in which RAW264.7 cells were cultured, and the cells were collected after 10 minutes and 3 days.\nFor the samples collected after 10 minutes, nuclear proteins of the cells were extracted using the Nuclear Extract Kit (Active Motif), and the degree of NFκB (p65) activation was measured by the TransAM NFkB p65 Kit (Active Motif). On the other hand, for the samples collected after 3 days, the mRNA expression levels of NFATc1 and ACP5 were analyzed by real-time RT-PCR."}, "[3]": {"test_system": "THP1 cells", "assay": "Proinflammatory cytokine secretion inhibition, human macrophage cells", "type": "cell-based", "conditions": "MHP6 10-100 μg/ml or MHP1 100 μg/ml, LPS 2 ng/ml, 24 hours, FIG. 14", "protocol": "THP1 cells (human-derived macrophage cell line) were cultured in a DMEM medium (+4% FBS) containing MHP6 (human-derived; final concentration: 10, 30, 50, or 100 μg/ml) or MHP1 (mouse-derived; final concentration: 100 μg/ml), and LPS (final concentration: 2 ng/ml) for 24 hours by a standard method. After culture, the concentration of IL-6 in the medium was measured by the ELISA method."}, "[4]": {"test_system": "cerebral infarction model mice", "assay": "Necrosis inhibition by intravenous administration in cerebral infarction models", "type": "in vivo, mouse", "conditions": "300 μG i.v. 4 hours after infarction, then 336 μg s.c. over 21 hours", "protocol": "A cerebral ischemic area was artificially developed in wild-type mice (C57BL6/J) using embolic suture. Specifically, nylon suture was inserted from the right external carotid artery into the intracranial internal carotid artery, and the right middle cerebral artery was temporarily occluded. The embolic suture was removed 40 minutes after the formation of the ischemic area, and the blood was reperfused. Four hours after the formation of the ischemic area, 2 μl of MHP1 solution (0.625 μg/2 μl, the solvent was artificial cerebrospinal fluid (aCSF)) or 2 μl of aCSF was administered by injection into the ventricle of the mice with a neurological severe score of 1 or 2. […] The area of the cresyl violet staining site was regarded as the cerebral infarct area (necrosis site), and the ratio of cerebral infarct area was determined by the following formula. […]\nCerebral infarction models were produced in the same manner as in Example 10. […] Twenty-four hours and forty-eight hours after the production of the cerebral infarction models, neurological severity scores were measured. Furthermore, the mice were sacrificed 48 hours after the production of the cerebral infarction models, and the ratio of cerebral infarct area was determined in the same manner as in Example 10."}},
  "data": [
    {"sequence": "LMVYVVKTSIKIPSSHNLMKGGSTKNWSGN (listed as Mus musculus) [MHP1]", "values": [
      {"measurement": "increase in the amount of IL-6 secretion by LPS", "setting": "[1]; FIG. 3", "result": "suppressed"},
      {"measurement": "increase in the amount of TNFα secretion by LPS", "setting": "[1]; FIG. 4", "result": "suppressed"},
      {"measurement": "expression of osteoclast-related mRNA (NFATc1, ACP5)", "setting": "[2]", "result": "did not promote"},
      {"measurement": "proinflammatory cytokine (IL-6) secretion-inhibiting activity on human-derived macrophage cells", "setting": "[3]", "result": "exhibited proinflammatory cytokine secretion-inhibiting activity"},
      {"measurement": "symptoms of cerebral infarction (neurological severity scores)", "setting": "[4]; 24 and 48 hours, FIG. 23", "result": "could be relieved"},
      {"measurement": "necrosis occurring after cerebral ischemia (ratio of cerebral infarct area)", "setting": "[4]; 48 hours, FIG. 22", "result": "could be suppressed"}
    ]}
  ]
}
